Laboratory results published in ChEMBL document CHEMBL3885861, “Open TG-GATES”.

Species on record: Rattus norvegicus
Assay: Open TG-GATES - Regimen: Daily Repeat
Format: toxicity, organism-based, Sprague-Dawley
Parameters: regimen Daily Repeat, gender Male, age 6 weeks
Conditions: in vivo, po, 500 mg/kg, route gavage, dose level High; for APTT / Bas / Eos / Fbg / Hb / Ht / Lym / MCH / MCHC / MCV / Mono / Neu / PT / Plat / RBC / Ret / WBC: tissue Blood; for KIDNEY_L / KIDNEY_R / KIDNEY_TOTAL: tissue Kidney; for LIVER: tissue Liver; for A/G / ALP / ALT / AST / BUN / CRE / Ca / Cl / DBIL / GLC / IP / K / LDH / Na / PL / RALB / TBIL / TC / TG / TP / gamma-GTP: tissue Plasma

CN1C(=O)CCS(=O)(=O)C1c1ccc(Cl)cc1 (configuration not stated) [CHLORMEZANONE]
TERMINAL_BW (72 h, time 3 day): 218.1 g
APTT (72 h, time 3 day): 22.2 s
Bas (72 h, time 3 day): 0%
Eos (72 h, time 3 day): 1%
Fbg (72 h, time 3 day): 285.2 mg/dL
Hb (72 h, time 3 day): 13.2 g/dL
Ht (72 h, time 3 day): 38.9%
Lym (72 h, time 3 day): 75.2%
MCH (72 h, time 3 day): 21.2 pg
MCHC (72 h, time 3 day): 33.9%
MCV (72 h, time 3 day): 62.8 fL
Mono (72 h, time 3 day): 3.2%
Neu (72 h, time 3 day): 20.2%
PT (72 h, time 3 day): 11.4 s
Plat (72 h, time 3 day): 115.7 x10_4/uL
RBC (72 h, time 3 day): 620.2 x10_4/ul
Ret (72 h, time 3 day): 5.3%
WBC (72 h, time 3 day): 90.9 x10_2/uL
KIDNEY_L (72 h, time 3 day): 0.9 g
KIDNEY_R (72 h, time 3 day): 0.9 g
KIDNEY_TOTAL (72 h, time 3 day): 1.9 g
LIVER (72 h, time 3 day): 13.5 g
A/G (72 h, time 3 day): 0.9
ALP (72 h, time 3 day): 1900.8 IU/L
ALT (72 h, time 3 day): 60.6 IU/L
AST (72 h, time 3 day): 77.2 IU/L
BUN (72 h, time 3 day): 12.6 mg/dL
CRE (72 h, time 3 day): 0.2 mg/dL
Ca (72 h, time 3 day): 10.8 mg/dL
Cl (72 h, time 3 day): 107.2 meq/L
DBIL (72 h, time 3 day): 0.02 mg/dL
GLC (72 h, time 3 day): 179.4 mg/dL
IP (72 h, time 3 day): 6.9 mg/dL
K (72 h, time 3 day): 4.3 meq/L
LDH (72 h, time 3 day): 101.4 IU/L
Na (72 h, time 3 day): 142 meq/L
PL (72 h, time 3 day): 157.6 mg/dL
RALB (72 h, time 3 day): 2.6 g/dL
TBIL (72 h, time 3 day): 0.05 mg/dL
TC (72 h, time 3 day): 84.6 mg/dL
TG (72 h, time 3 day): 99.4 mg/dL
TP (72 h, time 3 day): 5.6 g/dL
gamma-GTP (72 h, time 3 day): 1.6 IU/L
TERMINAL_BW ([…], time 7 day): 254.1 g
TERMINAL_BW ([…], time 14 day): 312.8 g
TERMINAL_BW ([…], time 28 day): 364.7 g
APTT ([…], time 7 day): 22 s
Bas ([…], time 7 day): 0%
Eos ([…], time 7 day): 0.8%
Fbg ([…], time 7 day): 341.2 mg/dL
Hb ([…], time 7 day): 12.6 g/dL
Ht ([…], time 7 day): 37.3%
Lym ([…], time 7 day): 70.4%
MCH ([…], time 7 day): 20.9 pg
MCHC ([…], time 7 day): 33.9%
MCV ([…], time 7 day): 61.5 fL
Mono ([…], time 7 day): 3.2%
Neu ([…], time 7 day): 24.8%
PT ([…], time 7 day): 11.5 s
Plat ([…], time 7 day): 147.1 x10_4/uL
RBC ([…], time 7 day): 606.6 x10_4/ul
Ret ([…], time 7 day): 6.9%
WBC ([…], time 7 day): 116.2 x10_2/uL
APTT ([…], time 14 day): 24.3 s
Bas ([…], time 14 day): 0%
Eos ([…], time 14 day): 0.6%
Fbg ([…], time 14 day): 314.6 mg/dL
Hb ([…], time 14 day): 13.4 g/dL
Ht ([…], time 14 day): 38.7%
Lym ([…], time 14 day): 76.8%
MCH ([…], time 14 day): 20.6 pg
MCHC ([…], time 14 day): 34.8%
MCV ([…], time 14 day): 59.4 fL
Mono ([…], time 14 day): 3.6%
Neu ([…], time 14 day): 18.2%
PT ([…], time 14 day): 12 s
Plat ([…], time 14 day): 122.7 x10_4/uL
RBC ([…], time 14 day): 651.4 x10_4/ul
Ret ([…], time 14 day): 6.4%
WBC ([…], time 14 day): 112.6 x10_2/uL
APTT ([…], time 28 day): 28.5 s
Bas ([…], time 28 day): 0%
Eos ([…], time 28 day): 1.2%
Fbg ([…], time 28 day): 286.4 mg/dL
Hb ([…], time 28 day): 13 g/dL
Ht ([…], time 28 day): 37.8%
Lym ([…], time 28 day): 77%
MCH ([…], time 28 day): 20.2 pg
MCHC ([…], time 28 day): 34.5%
MCV ([…], time 28 day): 58.5 fL
Mono ([…], time 28 day): 1.8%
Neu ([…], time 28 day): 19.6%
PT ([…], time 28 day): 12.6 s
Plat ([…], time 28 day): 119.4 x10_4/uL
RBC ([…], time 28 day): 646.6 x10_4/ul
Ret ([…], time 28 day): 7.6%
WBC ([…], time 28 day): 126.7 x10_2/uL
KIDNEY_L ([…], time 7 day): 1 g
KIDNEY_R ([…], time 7 day): 1 g
KIDNEY_TOTAL ([…], time 7 day): 2 g
KIDNEY_L ([…], time 14 day): 1.2 g
KIDNEY_R ([…], time 14 day): 1.2 g
KIDNEY_TOTAL ([…], time 14 day): 2.4 g
KIDNEY_L ([…], time 28 day): 1.3 g
KIDNEY_R ([…], time 28 day): 1.3 g
KIDNEY_TOTAL ([…], time 28 day): 2.5 g
LIVER ([…], time 7 day): 16 g
LIVER ([…], time 14 day): 19 g
LIVER ([…], time 28 day): 20.4 g
A/G ([…], time 7 day): 0.9
ALP ([…], time 7 day): 1196.8 IU/L
ALT ([…], time 7 day): 48.2 IU/L
AST ([…], time 7 day): 59.8 IU/L
BUN ([…], time 7 day): 16.6 mg/dL
CRE ([…], time 7 day): 0.2 mg/dL
Ca ([…], time 7 day): 11.7 mg/dL
Cl ([…], time 7 day): 106 meq/L
DBIL ([…], time 7 day): 0.016 mg/dL
GLC ([…], time 7 day): 202.2 mg/dL
IP ([…], time 7 day): 7 mg/dL
K ([…], time 7 day): 4.2 meq/L
LDH ([…], time 7 day): 96.2 IU/L
Na ([…], time 7 day): 143.6 meq/L
PL ([…], time 7 day): 144.8 mg/dL
RALB ([…], time 7 day): 3 g/dL
TBIL ([…], time 7 day): 0.032 mg/dL
TC ([…], time 7 day): 80.6 mg/dL
TG ([…], time 7 day): 70.2 mg/dL
TP ([…], time 7 day): 6.3 g/dL
gamma-GTP ([…], time 7 day): 1.8 IU/L
A/G ([…], time 14 day): 0.9
ALP ([…], time 14 day): 1377.8 IU/L
ALT ([…], time 14 day): 57.2 IU/L
AST ([…], time 14 day): 62.4 IU/L
BUN ([…], time 14 day): 16.4 mg/dL
CRE ([…], time 14 day): 0.2 mg/dL
Ca ([…], time 14 day): 11.4 mg/dL
Cl ([…], time 14 day): 106 meq/L
DBIL ([…], time 14 day): 0.018 mg/dL
GLC ([…], time 14 day): 195.6 mg/dL
IP ([…], time 14 day): 7.1 mg/dL
K ([…], time 14 day): 4.2 meq/L
LDH ([…], time 14 day): 122.6 IU/L
Na ([…], time 14 day): 143.8 meq/L
PL ([…], time 14 day): 149 mg/dL
RALB ([…], time 14 day): 2.9 g/dL
TBIL ([…], time 14 day): 0.084 mg/dL
TC ([…], time 14 day): 75 mg/dL
TG ([…], time 14 day): 88 mg/dL
TP ([…], time 14 day): 6.4 g/dL
gamma-GTP ([…], time 14 day): 2 IU/L
A/G ([…], time 28 day): 0.8
ALP ([…], time 28 day): 1039.2 IU/L
ALT ([…], time 28 day): 55.2 IU/L
AST ([…], time 28 day): 59.6 IU/L
BUN ([…], time 28 day): 16.8 mg/dL
CRE ([…], time 28 day): 0.3 mg/dL
Ca ([…], time 28 day): 10.6 mg/dL
Cl ([…], time 28 day): 106.4 meq/L
DBIL ([…], time 28 day): 0.014 mg/dL
GLC ([…], time 28 day): 188.8 mg/dL
IP ([…], time 28 day): 6.1 mg/dL
K ([…], time 28 day): 4.2 meq/L
LDH ([…], time 28 day): 70.8 IU/L
Na ([…], time 28 day): 143.6 meq/L
PL ([…], time 28 day): 148 mg/dL
RALB ([…], time 28 day): 2.9 g/dL
TBIL ([…], time 28 day): 0.082 mg/dL
TC ([…], time 28 day): 76 mg/dL
TG ([…], time 28 day): 67 mg/dL
TP ([…], time 28 day): 6.5 g/dL
gamma-GTP ([…], time 28 day): 2.4 IU/L
